Measured values taken from paper PMC3065929 (Journal of the American Chemical Society, 2011).

Experiments:
Format in all cases: biochemical
NapH1 = molecular target: T1, NapH1 (Streptomyces sp. CNQ-525, UniProt A7KH27); assay: HPLC assay of chlorination-cyclization; settings: H2O2, chloride, pH 6; estimated, below detection limit of the assay
T1 sequence (A7KH27 42-527): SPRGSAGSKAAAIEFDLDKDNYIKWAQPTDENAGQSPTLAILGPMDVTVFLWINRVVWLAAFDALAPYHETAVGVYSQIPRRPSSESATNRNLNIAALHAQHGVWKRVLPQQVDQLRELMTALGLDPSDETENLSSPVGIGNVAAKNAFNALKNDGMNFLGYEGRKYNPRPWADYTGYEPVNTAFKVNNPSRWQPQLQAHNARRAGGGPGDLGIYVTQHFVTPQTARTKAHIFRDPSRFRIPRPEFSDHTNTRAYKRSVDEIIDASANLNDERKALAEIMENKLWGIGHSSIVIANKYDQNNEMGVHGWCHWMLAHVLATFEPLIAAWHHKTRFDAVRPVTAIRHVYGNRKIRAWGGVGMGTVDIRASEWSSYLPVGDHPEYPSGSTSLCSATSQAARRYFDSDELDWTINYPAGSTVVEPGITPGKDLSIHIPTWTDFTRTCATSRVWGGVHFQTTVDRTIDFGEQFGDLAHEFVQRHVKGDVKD

CoBPO [1] = molecular target: T2, CoBPO (Corallina officinalis, UniProt Q8LLW7); assay: conversion to products
T2 sequence (Q8LLW7 1-598): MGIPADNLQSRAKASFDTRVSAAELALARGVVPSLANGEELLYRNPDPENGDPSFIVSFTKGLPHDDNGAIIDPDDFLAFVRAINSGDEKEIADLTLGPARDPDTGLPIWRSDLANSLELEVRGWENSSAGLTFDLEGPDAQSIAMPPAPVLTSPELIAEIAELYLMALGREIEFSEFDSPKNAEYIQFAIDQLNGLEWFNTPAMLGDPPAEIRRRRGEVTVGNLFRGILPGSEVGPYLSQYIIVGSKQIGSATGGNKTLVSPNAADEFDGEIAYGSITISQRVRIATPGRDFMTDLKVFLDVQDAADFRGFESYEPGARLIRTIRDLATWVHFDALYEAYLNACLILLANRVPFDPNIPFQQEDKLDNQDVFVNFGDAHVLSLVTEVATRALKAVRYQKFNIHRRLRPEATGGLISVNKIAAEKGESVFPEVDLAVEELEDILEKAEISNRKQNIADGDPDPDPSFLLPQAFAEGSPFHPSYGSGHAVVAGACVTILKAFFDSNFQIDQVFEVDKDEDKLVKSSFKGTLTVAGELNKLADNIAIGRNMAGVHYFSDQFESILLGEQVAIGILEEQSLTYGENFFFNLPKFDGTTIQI

CoBPO [2] = molecular target: T2, CoBPO; assay: spectrophotometric MCD bromination assay; settings: H2O2, 0.2 M bromide, 30 °C

CC(C)=CCC/C(C)=C/C[C@@]1(O)C(=O)c2cc(O)c(C)c(O)c2C(=O)[C@]1(Cl)CC=C(C)C [compound 3, SF2415B1]
Km (NapH1): < 1 µM

CC(C)=CCC1=C(O)C(=O)c2ccccc2C1=O [lapachol, 4-hydroxy-3-(3-methylbut-2-enyl)naphthalene-1,2-dione]
conversion to products (CoBPO [1]): CoBPO catalyzed the complete conversion of lapachol into numerous products

CC1(C)CC(=O)C(Cl)C(=O)C1 [monochlorodimedone]
spectrophotometric MCD bromination assay (290 nm) (CoBPO [2]): Corallina officinalis V-BPO (CoBPO) (below)
